Assay results taken from publication PMC3791872 (Bioscience Reports, 2013).

Key:
RPE-hTERT cells = test: Human cell viability, MTS method; type: cell-based; conditions: Homo sapiens, 48 h, value (95% CI)
Protocol: Ciproﬂoxacin is an inhibitor of the Mcm2-7 […]
The viability of human cells was assayed using the MTS method
[1]. Brieﬂy, 1 ×10^5 cells of the human non-tumour cell line RPE-hTERT were plated into each well of a 96-well plate and grown in DMEM: F12 containing 10 % (v/v) FBS in 5 % (v/v) CO2 at 37 ◦ C. The next day, the indicated compounds were titrated into media such that the ﬁnal concentration contained 1 % (v/v)
DMSO. As a negative control, media were also prepared that contained 1 % DMSO but lacked compound. After 48 h, the media was removed and replaced with DMEM lacking phenol red but containing Cell Titer 96 Aqueous One Solution Cell Proliferation
Assay (Promega). After 1 h, the A490 nm was measured using a BioRad iMark Microplate Reader (Hercules). Final data reﬂect the average and standard deviation (S.D.) of three replicates at each compound concentration. […]

Mcm467 = target: T1, Mcm467 (Saccharomyces cerevisiae, UniProt P30665+P38132+P53091); test: Steady-state ATP hydrolysis by Mcm467; type: biochemical; conditions: 1 mM compound, 100 nM hexamer
T1 construct: made in house; host or cells: baculovirus-infected insect cells
T1 sequence (P30665 whole entry): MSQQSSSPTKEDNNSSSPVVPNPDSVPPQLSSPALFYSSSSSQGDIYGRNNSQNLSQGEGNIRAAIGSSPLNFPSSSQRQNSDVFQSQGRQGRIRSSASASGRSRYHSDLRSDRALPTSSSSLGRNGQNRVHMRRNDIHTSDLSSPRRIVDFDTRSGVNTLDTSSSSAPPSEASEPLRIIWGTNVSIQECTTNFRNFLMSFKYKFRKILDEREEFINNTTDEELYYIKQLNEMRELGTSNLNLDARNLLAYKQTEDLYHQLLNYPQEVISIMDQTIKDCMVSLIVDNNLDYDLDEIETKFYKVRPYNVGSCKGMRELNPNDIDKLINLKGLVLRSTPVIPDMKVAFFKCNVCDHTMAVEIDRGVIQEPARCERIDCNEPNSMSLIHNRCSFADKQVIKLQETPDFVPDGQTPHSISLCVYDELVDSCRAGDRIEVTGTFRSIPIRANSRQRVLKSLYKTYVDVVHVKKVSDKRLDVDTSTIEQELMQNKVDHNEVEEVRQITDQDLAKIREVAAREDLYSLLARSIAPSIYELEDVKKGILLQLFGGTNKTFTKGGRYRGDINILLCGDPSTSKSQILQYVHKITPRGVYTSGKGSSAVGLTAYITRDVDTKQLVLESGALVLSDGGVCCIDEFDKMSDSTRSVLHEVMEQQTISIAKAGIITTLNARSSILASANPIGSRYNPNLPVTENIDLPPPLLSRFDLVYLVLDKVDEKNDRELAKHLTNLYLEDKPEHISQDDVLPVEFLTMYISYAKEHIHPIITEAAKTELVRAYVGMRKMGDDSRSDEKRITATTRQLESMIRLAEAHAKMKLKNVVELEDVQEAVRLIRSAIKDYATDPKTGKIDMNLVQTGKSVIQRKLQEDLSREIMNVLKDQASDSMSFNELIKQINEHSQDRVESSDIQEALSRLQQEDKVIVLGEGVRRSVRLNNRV
T1 sequence (P53091 whole entry): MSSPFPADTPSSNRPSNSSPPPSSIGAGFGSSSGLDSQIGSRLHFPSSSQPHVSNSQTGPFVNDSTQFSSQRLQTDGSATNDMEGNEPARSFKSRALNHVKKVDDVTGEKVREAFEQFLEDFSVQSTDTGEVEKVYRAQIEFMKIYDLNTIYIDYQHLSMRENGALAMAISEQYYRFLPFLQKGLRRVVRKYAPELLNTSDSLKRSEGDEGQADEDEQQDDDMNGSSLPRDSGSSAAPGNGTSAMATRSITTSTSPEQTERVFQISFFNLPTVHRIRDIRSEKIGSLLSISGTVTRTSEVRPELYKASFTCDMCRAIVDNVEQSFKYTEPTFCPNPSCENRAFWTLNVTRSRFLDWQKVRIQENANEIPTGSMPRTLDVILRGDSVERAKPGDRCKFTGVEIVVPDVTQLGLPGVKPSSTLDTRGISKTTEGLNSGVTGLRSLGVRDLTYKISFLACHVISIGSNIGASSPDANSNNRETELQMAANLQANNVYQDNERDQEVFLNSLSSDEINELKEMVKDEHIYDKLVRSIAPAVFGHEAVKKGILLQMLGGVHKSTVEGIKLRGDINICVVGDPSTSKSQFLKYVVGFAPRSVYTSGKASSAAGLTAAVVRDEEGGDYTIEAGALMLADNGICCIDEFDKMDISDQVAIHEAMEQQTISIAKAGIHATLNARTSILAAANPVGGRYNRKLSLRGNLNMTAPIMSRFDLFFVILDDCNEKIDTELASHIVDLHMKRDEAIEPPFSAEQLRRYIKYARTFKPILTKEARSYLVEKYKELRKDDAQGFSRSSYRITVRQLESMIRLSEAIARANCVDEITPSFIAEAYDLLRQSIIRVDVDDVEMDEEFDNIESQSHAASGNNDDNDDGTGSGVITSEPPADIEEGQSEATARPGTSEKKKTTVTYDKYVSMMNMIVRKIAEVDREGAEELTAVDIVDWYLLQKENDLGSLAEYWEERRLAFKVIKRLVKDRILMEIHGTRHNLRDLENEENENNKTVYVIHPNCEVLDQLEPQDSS
T1 sequence (P38132 whole entry): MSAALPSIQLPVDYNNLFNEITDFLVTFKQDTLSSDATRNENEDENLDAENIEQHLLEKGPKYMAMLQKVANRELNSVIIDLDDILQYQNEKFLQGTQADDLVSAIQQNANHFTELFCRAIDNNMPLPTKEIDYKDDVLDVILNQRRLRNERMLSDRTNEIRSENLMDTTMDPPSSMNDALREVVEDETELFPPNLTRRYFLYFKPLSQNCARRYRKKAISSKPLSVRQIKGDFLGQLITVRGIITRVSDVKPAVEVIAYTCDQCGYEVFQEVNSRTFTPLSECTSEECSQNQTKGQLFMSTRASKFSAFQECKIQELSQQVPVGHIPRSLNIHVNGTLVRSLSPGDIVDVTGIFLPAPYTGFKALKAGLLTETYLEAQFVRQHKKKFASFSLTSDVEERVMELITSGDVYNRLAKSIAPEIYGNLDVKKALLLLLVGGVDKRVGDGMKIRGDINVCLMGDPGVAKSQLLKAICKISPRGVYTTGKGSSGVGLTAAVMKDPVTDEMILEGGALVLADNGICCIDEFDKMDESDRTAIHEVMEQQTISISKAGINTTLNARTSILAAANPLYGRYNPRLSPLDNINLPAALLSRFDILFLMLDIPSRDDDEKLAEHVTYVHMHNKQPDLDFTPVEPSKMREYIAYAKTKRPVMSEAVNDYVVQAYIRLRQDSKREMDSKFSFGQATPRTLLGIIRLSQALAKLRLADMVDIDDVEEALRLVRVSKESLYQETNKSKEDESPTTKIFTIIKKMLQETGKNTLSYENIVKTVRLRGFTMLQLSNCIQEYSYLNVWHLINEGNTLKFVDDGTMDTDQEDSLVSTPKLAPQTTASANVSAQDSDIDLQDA

O=C(O)c1cn(C2CC2)c2cc(N3CCNCC3)c(F)cc2c1=O [Ciprofloxacin, ciprofloxacin, reference compound]
IC50 (RPE-hTERT cells): 240 µM | effect on ATP hydrolysis of Mcm467 (Mcm467): only modest effects
